Assay results from patent US11542273B2, “Amide compound having bet proteolysis-inducing action and medicinal application thereof” (MITSUBISHI TANABE PHARMA CORPORATION, priority 2018, dated 2023).

How the values were obtained:
[1] = tested on: human prostate cancer LNCaP cells; test: Cytotoxic action on cancer cells (WST-8, 96 hr); assay type: cell-based; details: Homo sapiens, LNCaP, 96 h, read-out: LNCaP cytotoxic activity: IC50
Method: The cytotoxic action of the compound of the present invention against human cancer cells was evaluated in vitro. In this experiment, (+)-JQ1 (Nature volume 468, pages 1067-1073 (23 Dec. 2010)) known to have an inhibitory activity on the binding of BRD4 protein and a ligand therefor was used as a positive control drug. Respective cells were suspended in 10% FBS/RPMI1640, seeded in a 96 well plate and cultured at 5% CO2, 37° C. overnight. A test compound dissolved in DMSO was diluted with 10% FBS/RPMI1640 and added and the cells were further cultured for 96 hr. After culturing, the viable cell number was measured using a cell number measurement WST-8 kit (Kishida Chemical Co., Ltd.). As a control, the measurement was performed under conditions free of the test compound. The cytotoxic activity of the compound of the present invention against human prostate cancer LNCaP cells is shown in IC50 value in Table 1. […] It was calculated from the straight line connecting the cell survival rate at two points enclosing the 50% cell survival rate and the compound concentration. In addition, the cytotoxic activity against respective cancer cells of human acute myeloid leukemia MV-4-11 cell, human chronic myeloid leukemia K562 cell, human multiple myeloma MM.1S cell, human diffuse large B-cell lymphoma SU-DHL-6 cell, human T-cell leukemia Jurkat cells, human Burkitt lymphoma Raji cell, human castration-resistant prostate cancer PC-3 cell, human ovarian cancer A2780 cell, human bladder cancer 5637 cell, human breast cancer ZR-75-1 cell, human triple negative breast cancer MDA-MB-231 cell, human uterine sarcoma MES-SA cell, human gastric cancer SNU-16 cell, human non-small cell lung cancer NCI-H1975 cell, human small cell lung cancer NCI-H82 cell, human large cell lung cancer NCI-H460 cell, human colorectal cancer HCT116 cell, human glioma U-87 MG cell, human pancreatic cancer AsPC-1 cell, and human liver cancer Hep G2 cell is shown in IC50 value in Table 2.

BRD4 protein = BRD4 protein (Homo sapiens (Human), UniProt O60885); test: BRD4 protein degradation inducing action in cancer cells (immunofluorescence, Operetta); assay type: cell-based; details: LNCaP cells, 6 hr treatment, fluorescence intensity
Method: The degradation inducing action of the compound of the present invention on BRD4 protein in cancer cells was evaluated in vitro using human prostate cancer LNCaP cells. LNCaP cells were suspended in 10% FBS/RPMI1640, seeded in a 96 well Cell carrier plate (Perkin Elmer) and cultured at 5% CO2, 37° C. overnight. A test compound dissolved in DMSO was diluted with 10% FBS/RPMI1640 and added and the cells were further cultured for 6 hr. After culturing, the cells were immobilized with 4% para-formaldehyde/PBS and further subjected to a permeation treatment with 0.25% Triton X-100/PBS. Thereafter, the cells were blocked with 10% BSA/PBS, a solution containing Anti-Brd4 antibody (Abcam) or Anti-BRD4 (Sigma-Aldrich) as the primary antibody was added and the cells were incubated at 4° C. overnight. Thereafter, as the secondary antibody, a solution containing secondary antibody A shown below was added to Example compounds 1-190, 223 and 224, and a solution containing secondary antibody B shown below was added to Example compounds 191-222, and 0.5 μg/mL Hoechst 33342 (Sigma-Aldrich) and 14 μM Acti-Stain 555 Fluorescent Phalloidin (Cytoskeleton) were further added. After incubation for 1 hr, BRD4 protein amount was measured by Operetta (Perkin Elmer) as fluorescence intensity.
• Anti-Rabbit IgG(H+L), F(ab′)2 Fragment (Alexa Fluor 488 Conjugate) (Cell Signaling Technology), fluorescence intensity was measured at excitation: 495 nm, emission: 519 nm. Secondary Antibody B • Goat anti-Rabbit IgG(H+L) Cross-Adserbed Secondary Antibody (Alexa Fluor 546) (Thermo Fisher Scientific) fluorescence intensity was measured at excitation: 560 nm, emission: 572 nm.
The BRD4 protein degradation inducing activity of the compound of the present invention in LNCaP cells is shown in DC50 value in Table 3. The DC50 value is a concentration of the compound showing 50% fluorescence intensity when the fluorescence intensity thereof under compound untreated condition is 100%. It was calculated from the straight line connecting the fluorescence intensity at two points enclosing the 50% fluorescence intensity and the compound concentration.

| SMILES | IC50 [1] [nM] | DC50 (BRD4 protein) [nM] |
| --- | --- | --- |
| CCOC(=O)c1ncsc1-c1ccc(CNC(=O)[C@@H]2C[C@@H](O)CN2C(=O)[C@@H](NC(=O)c2ccc(-c3ccc(C4=N[C@@H](CC(=O)OC)c5nnc(C)n5-c5sc(C)c(C)c54)cc3)cc2)C(C)(C)C)cc1 [Example 219, ethyl 5-{4-[({(2S,4R)-4-hydroxy-1-[(2S)-2-({4′-[(6S)-6-(2-methoxy-2-oxoethyl)-2,3,9-trimethyl-6H-thieno[3,2-f] [1,2,4]triazolo[4,3-a][1,4]diazepin-4-yl][1,1′-biphenyl]-4-carbonyl}amino)-3,3-dimethylbutanoyl]pyrrolidine-2-carbonyl}amino)methyl]phenyl}-1,3-thiazole-4-carboxylate] | 0.52 | 0.52 |
| COC(=O)C[C@@H]1N=C(c2ccc(NC(=O)CCc3ccc(OCCOCCOCCOCCOCCOCCOCCOCC(=O)N[C@H](C(=O)N4C[C@H](O)C[C@H]4C(=O)N[C@@H](C)c4ccc(-c5scnc5C)cc4)C(C)(C)C)cc3)cc2)c2c(sc(C)c2C)-n2c(C)nnc21 [Example 5, methyl [(6S)-4-(4-{3-[4-({(25S)-25-[(2S,4R)-4-hydroxy-2-({(18)-1-[4-(4-methyl-1,3-thiazol-5-yl)phenyl]ethyl}carbamoyl)pyrrolidine-1-carbonyl]-26,26-dimethyl-23-oxo-3,6,9,12,15,18,21-heptaoxa-24-azaheptacosan-1-yl}oxy)phenyl]propanamido}phenyl)-2,3,9-trimethyl-6H-thieno[3,2-f][1,2,4]triazolo[4,3-a][1,4]diazepin-6-yl]acetate] | 1.2 | 0.52 |
| Cc1ncsc1-c1ccc([C@H](C)NC(=O)[C@@H]2C[C@@H](O)CN2C(=O)[C@@H](NC(=O)COc2ccc(-c3ccc(C4=N[C@@H](C)c5nnc(C)n5-c5sc(C)c(C)c54)cc3)cc2)C(C)(C)C)cc1 [Example 33, (2S,4R)-1-{(2S)-3,3-dimethyl-2-[2-({4′-[(6S)-2,3,6,9-tetramethyl-6H-thieno[3,2-f][1,2,4]triazolo[4,3-a] [1,4]diazepin-4-yl][1,1′-biphenyl]-4-yl}oxy)acetamido]butanoyl}-4-hydroxy-N-{(1S)-1-[4-(4-methyl-1,3-thiazol-5-yl)phenyl]ethyl}pyrrolidine-2-carboxamide] | 0.26 | 0.38 |
| Cc1ncsc1-c1ccc([C@H](C)NC(=O)[C@@H]2C[C@@H](O)CN2C(=O)[C@@H](NC(=O)CCCCCc2ccc(C3=N[C@@H](C)c4nnc(C)n4-c4sc(C)c(C)c43)cc2)C(C)(C)C)cc1 [Example 193, (2S,4R)-1-{(2S)-3,3-dimethyl-2-[(6-{4-[(6S)-2,3,6,9-tetramethyl-6H-thieno[3,2-f][1,2,4]triazolo[4,3-a] [1,4]diazepin-4-yl]phenyl}hexanoyl)amino]butanoyl}-4-hydroxy-N-{(1S)-1-[4-(4-methyl-1,3-thiazol-5-yl)phenyl]ethyl}pyrrolidine-2-carboxamide] | 0.3 | 0.62 |
| COC(=O)C[C@@H]1N=C(c2ccc(-c3ccc(C(=O)N[C@H](C(=O)N4C[C@H](O)C[C@H]4C(=O)NCc4ccc(-c5scnc5CO)cc4)C(C)(C)C)cc3)cc2)c2c(sc(C)c2C)-n2c(C)nnc21 [Example 220, methyl [(6S)-4-(4′-{[(2S)-1-{(2S,4R)-4-hydroxy-2-[({4-[4-(hydroxymethyl)-1,3-thiazol-5-yl]phenyl}methyl)carbamoyl]pyrrolidin-1-yl}-3,3-dimethyl-1-oxobutan-2-yl]carbamoyl}[1,1′-biphenyl]-4-yl)-2,3,9-trimethyl-6H-thieno[3,2-f][1,2,4]triazolo[4,3-a][1,4]diazepin-6-yl]acetate] | 0.92 | 0.92 |
| COC(=O)C[C@@H]1N=C(c2ccc(-c3ccc(C(=O)N[C@H](C(=O)N4C[C@H](O)C[C@H]4C(=O)N[C@@H](C)c4ccc(-c5scnc5C)cc4)C(C)C)cc3)cc2)c2c(sc(C)c2C)-n2c(C)nnc21 [Example 210, methyl {(6S)-4-[4′-({(2S)-1-[(2S,4R)-4-hydroxy-2-({(1S)-1-[4-(4-methyl-1,3-thiazol-5-yl)phenyl]ethyl}carbamoyl)pyrrolidin-1-yl]-3-methyl-1-oxobutan-2-yl}carbamoyl)[1,1′-biphenyl]-4-yl]-2,3,9-trimethyl-6H-thieno[3,2-f][1,2,4]triazolo[4,3-a][1,4]diazepin-6-yl}acetate] | 0.29 | 0.26 |
| COC(=O)C[C@@H]1N=C(c2ccc(-c3ccc(C(=O)N[C@H](C(=O)N4C[C@H](O)C[C@H]4C(=O)NCc4ccc(-c5scnc5C)cc4)C(C)(C)C)c(Cl)c3)cc2)c2c(sc(C)c2C)-n2c(C)nnc21 [Example 190, methyl {(6S)-4-[3′-chloro-4′-({(2S)-1-[(2S,4R)-4-hydroxy-2-({[4-(4-methyl-1,3-thiazol-5-yl)phenyl]methyl}carbamoyl)pyrrolidin-1-yl]-3,3-dimethyl-1-oxobutan-2-yl}carbamoyl)[1,1′-biphenyl]-4-yl]-2,3,9-trimethyl-6H-thieno[3,2-f][1,2,4]triazolo[4,3-a][1,4]diazepin-6-yl}acetate] | 0.13 | 0.17 |
| COC(=O)C[C@@H]1N=C(c2ccc(-c3ccc4c(c3)N(CC(=O)N[C@H](C(=O)N3C[C@H](O)C[C@H]3C(=O)N[C@@H](C)c3ccc(-c5scnc5C)cc3)C(C)(C)C)C(=O)CC4)cc2)c2c(sc(C)c2C)-n2c(C)nnc21 [Example 146, methyl [(6S)-4-(4-{1-[2-({(2S)-1-[(2S,4R)-4-hydroxy-2-({(1S)-1-[4-(4-methyl-1,3-thiazol-5-yl)phenyl]ethyl}carbamoyl)pyrrolidin-1-yl]-3,3-dimethyl-1-oxobutan-2-yl}amino)-2-oxoethyl]-2-oxo-1,2,3,4-tetrahydroquinolin-7-yl}phenyl)-2,3,9-trimethyl-6H-thieno[3,2-f] [1,2,4]triazolo[4,3-a][1,4]diazepin-6-yl]acetate] | 0.44 | 0.46 |
| COC(=O)C[C@@H]1N=C(c2ccc(N3CCc4ccc(C(=O)N[C@H](C(=O)N5C[C@H](O)C[C@H]5C(=O)N[C@@H](C)c5ccc(-c6scnc6C)cc5)C(C)(C)C)cc4C3)cc2)c2c(sc(C)c2C)-n2c(C)nnc21 [Example 161, methyl [(6S)-4-{4-[7-({(2S)-1-[(2S,4R)-4-hydroxy-2-({(1S)-1-[4-(4-methyl-1,3-thiazol-5-yl)phenyl]ethyl}carbamoyl)pyrrolidin-1-yl]-3,3-dimethyl-1-oxobutan-2-yl}carbamoyl)-3,4-dihydroisoquinolin-2(1H)-yl]phenyl}-2,3,9-trimethyl-6H-thieno[3,2-f][1,2,4]triazolo[4,3-a][1,4]diazepin-6-yl]acetate] | 0.22 | 0.075 |
| COC(=O)C[C@@H]1N=C(c2ccc(-c3ccc(C(=O)N[C@H](C(=O)N4C[C@H](O)C[C@H]4C(=O)N[C@@H](C)c4ccc(-c5scnc5C)cc4)C(C)(C)C)c(F)c3F)cc2)c2c(sc(C)c2C)-n2c(C)nnc21 [Example 176, methyl {(6S)-4-[2′,3′-difluoro-4′-({(2S)-1-[(2S,4R)-4-hydroxy-2-({(1S)-1-[4-(4-methyl-1,3-thiazol-5-yl)phenyl]ethyl}carbamoyl)pyrrolidin-1-yl]-3,3-dimethyl-1-oxobutan-2-yl}carbamoyl)[1,1′-biphenyl]-4-yl]-2,3,9-trimethyl-6H-thieno[3,2-f][1,2,4]triazolo[4,3-a][1,4]diazepin-6-yl}acetate] | 0.39 | 0.44 |
